Oligonucleotides are written 5' to 3', each unit as a sugar letter and its base; * is a phosphorothioate linkage, no mark a phosphodiester; rarer units and linkages stand in square brackets, end groups in braces. Plain capitals give the bases only. Oligonucleotides are given in HELM: sugar(base)linkage, 5' to 3'; d 2'-deoxyribose, r ribose, m 2'-O-methylribose, p phosphate. ss, as = sense and antisense strand; d = 2'-deoxy (DNA); r = 2'-OH (RNA)
Each substance was assayed against CDC34 (assay: reporter assay of Huesken 2005). Details: siRNA.
Substance “RNA1{r(C)p.r(G)p.r(C)p.r(G)p.r(U)p.r(G)p.r(A)p.r(C)p.r(A)p.r(C)p.r(U)p.r(G)p.r(G)p.r(U)p.r(G)p.r(G)p.r(A)p.r(C)p.r(G)p.d(T)p.d(T)}|RNA2{r(C)p.r(G)p.r(U)p.r(C)p.r(C)p.r(A)p.r(C)p.r(C)p.r(A)p.r(G)p.r(U)p.r(G)p.r(U)p.r(C)p.r(A)p.r(C)p.r(G)p.r(C)p.r(G)p.d(G)p.d(A)}$$$RNA1{StrandType:ss}|RNA2{StrandType:as}$” has a normalised inhibition (eCFP-eYFP dual reporter) of 67.3%.
With “RNA1{r(C)p.r(U)p.r(A)p.r(C)p.r(G)p.r(A)p.r(C)p.r(G)p.r(A)p.r(C)p.r(U)p.r(A)p.r(C)p.r(U)p.r(A)p.r(C)p.r(G)p.r(G)p.r(G)p.d(T)p.d(T)}|RNA2{r(C)p.r(C)p.r(C)p.r(G)p.r(U)p.r(A)p.r(G)p.r(U)p.r(A)p.r(G)p.r(U)p.r(C)p.r(G)p.r(U)p.r(C)p.r(G)p.r(U)p.r(A)p.r(G)p.d(A)p.d(A)}$$$RNA1{StrandType:ss}|RNA2{StrandType:as}$” the normalised inhibition (eCFP-eYFP dual reporter) was 69%.
“RNA1{r(C)p.r(C)p.r(C)p.r(C)p.r(A)p.r(U)p.r(C)p.r(G)p.r(A)p.r(C)p.r(U)p.r(A)p.r(C)p.r(C)p.r(C)p.r(A)p.r(U)p.r(A)p.r(C)p.d(T)p.d(T)}|RNA2{r(G)p.r(U)p.r(A)p.r(U)p.r(G)p.r(G)p.r(G)p.r(U)p.r(A)p.r(G)p.r(U)p.r(C)p.r(G)p.r(A)p.r(U)p.r(G)p.r(G)p.r(G)p.r(G)p.d(A)p.d(A)}$$$RNA1{StrandType:ss}|RNA2{StrandType:as}$” gave a normalised inhibition (eCFP-eYFP dual reporter) of 44.9%.
“RNA1{r(G)p.r(G)p.r(G)p.r(G)p.r(C)p.r(U)p.r(G)p.r(C)p.r(A)p.r(G)p.r(G)p.r(A)p.r(A)p.r(G)p.r(A)p.r(G)p.r(C)p.r(C)p.r(G)p.d(T)p.d(T)}|RNA2{r(C)p.r(G)p.r(G)p.r(C)p.r(U)p.r(C)p.r(U)p.r(U)p.r(C)p.r(C)p.r(U)p.r(G)p.r(C)p.r(A)p.r(G)p.r(C)p.r(C)p.r(C)p.r(C)p.d(T)p.d(T)}$$$RNA1{StrandType:ss}|RNA2{StrandType:as}$” gave a normalised inhibition (eCFP-eYFP dual reporter) of 47.6%.
For “RNA1{r(C)p.r(G)p.r(U)p.r(G)p.r(G)p.r(A)p.r(C)p.r(G)p.r(C)p.r(C)p.r(U)p.r(C)p.r(C)p.r(G)p.r(U)p.r(G)p.r(A)p.r(U)p.r(G)p.d(T)p.d(T)}|RNA2{r(C)p.r(A)p.r(U)p.r(C)p.r(A)p.r(C)p.r(G)p.r(G)p.r(A)p.r(G)p.r(G)p.r(C)p.r(G)p.r(U)p.r(C)p.r(C)p.r(A)p.r(C)p.r(G)p.d(T)p.d(T)}$$$RNA1{StrandType:ss}|RNA2{StrandType:as}$”, the normalised inhibition (eCFP-eYFP dual reporter) was 79.4%.
For “RNA1{r(C)p.r(C)p.r(G)p.r(A)p.r(G)p.r(U)p.r(A)p.r(C)p.r(U)p.r(G)p.r(C)p.r(G)p.r(U)p.r(G)p.r(A)p.r(A)p.r(G)p.r(A)p.r(C)p.d(T)p.d(T)}|RNA2{r(G)p.r(U)p.r(C)p.r(U)p.r(U)p.r(C)p.r(A)p.r(C)p.r(G)p.r(C)p.r(A)p.r(G)p.r(U)p.r(A)p.r(C)p.r(U)p.r(C)p.r(G)p.r(G)p.d(C)p.d(C)}$$$RNA1{StrandType:ss}|RNA2{StrandType:as}$”, the normalised inhibition (eCFP-eYFP dual reporter) was 59%.
“RNA1{r(A)p.r(C)p.r(G)p.r(C)p.r(U)p.r(G)p.r(G)p.r(C)p.r(C)p.r(G)p.r(A)p.r(G)p.r(U)p.r(A)p.r(C)p.r(U)p.r(G)p.r(C)p.r(G)p.d(T)p.d(T)}|RNA2{r(C)p.r(G)p.r(C)p.r(A)p.r(G)p.r(U)p.r(A)p.r(C)p.r(U)p.r(C)p.r(G)p.r(G)p.r(C)p.r(C)p.r(A)p.r(G)p.r(C)p.r(G)p.r(U)p.d(G)p.d(G)}$$$RNA1{StrandType:ss}|RNA2{StrandType:as}$” was tested, and the normalised inhibition (eCFP-eYFP dual reporter) was 52.4%.
“RNA1{r(C)p.r(U)p.r(C)p.r(C)p.r(U)p.r(G)p.r(A)p.r(G)p.r(U)p.r(G)p.r(U)p.r(G)p.r(A)p.r(U)p.r(C)p.r(U)p.r(C)p.r(C)p.r(C)p.d(T)p.d(T)}|RNA2{r(G)p.r(G)p.r(G)p.r(A)p.r(G)p.r(A)p.r(U)p.r(C)p.r(A)p.r(C)p.r(A)p.r(C)p.r(U)p.r(C)p.r(A)p.r(G)p.r(G)p.r(A)p.r(G)p.d(A)p.d(A)}$$$RNA1{StrandType:ss}|RNA2{StrandType:as}$” gave a normalised inhibition (eCFP-eYFP dual reporter) of 42.3%.
“RNA1{r(G)p.r(A)p.r(C)p.r(G)p.r(A)p.r(G)p.r(G)p.r(G)p.r(C)p.r(U)p.r(C)p.r(A)p.r(G)p.r(A)p.r(C)p.r(C)p.r(U)p.r(C)p.r(U)p.d(T)p.d(T)}|RNA2{r(A)p.r(G)p.r(A)p.r(G)p.r(G)p.r(U)p.r(C)p.r(U)p.r(G)p.r(A)p.r(G)p.r(C)p.r(C)p.r(C)p.r(U)p.r(C)p.r(G)p.r(U)p.r(C)p.d(G)p.d(G)}$$$RNA1{StrandType:ss}|RNA2{StrandType:as}$” showed a normalised inhibition (eCFP-eYFP dual reporter) of 51.7%.
“RNA1{r(C)p.r(A)p.r(C)p.r(U)p.r(G)p.r(G)p.r(U)p.r(G)p.r(G)p.r(A)p.r(C)p.r(G)p.r(A)p.r(G)p.r(G)p.r(G)p.r(C)p.r(G)p.r(A)p.d(T)p.d(T)}|RNA2{r(U)p.r(C)p.r(G)p.r(C)p.r(C)p.r(C)p.r(U)p.r(C)p.r(G)p.r(U)p.r(C)p.r(C)p.r(A)p.r(C)p.r(C)p.r(A)p.r(G)p.r(U)p.r(G)p.d(T)p.d(C)}$$$RNA1{StrandType:ss}|RNA2{StrandType:as}$” showed a normalised inhibition (eCFP-eYFP dual reporter) of 75.5%.
In the case of “RNA1{r(C)p.r(U)p.r(C)p.r(A)p.r(G)p.r(A)p.r(C)p.r(C)p.r(U)p.r(C)p.r(U)p.r(U)p.r(C)p.r(U)p.r(A)p.r(C)p.r(G)p.r(A)p.r(C)p.d(T)p.d(T)}|RNA2{r(G)p.r(U)p.r(C)p.r(G)p.r(U)p.r(A)p.r(G)p.r(A)p.r(A)p.r(G)p.r(A)p.r(G)p.r(G)p.r(U)p.r(C)p.r(U)p.r(G)p.r(A)p.r(G)p.d(C)p.d(C)}$$$RNA1{StrandType:ss}|RNA2{StrandType:as}$”, the normalised inhibition (eCFP-eYFP dual reporter) is reported as 37.2%.
“RNA1{r(A)p.r(A)p.r(G)p.r(A)p.r(U)p.r(G)p.r(U)p.r(G)p.r(G)p.r(C)p.r(A)p.r(C)p.r(C)p.r(C)p.r(U)p.r(A)p.r(A)p.r(C)p.r(A)p.d(T)p.d(T)}|RNA2{r(U)p.r(G)p.r(U)p.r(U)p.r(A)p.r(G)p.r(G)p.r(G)p.r(U)p.r(G)p.r(C)p.r(C)p.r(A)p.r(C)p.r(A)p.r(U)p.r(C)p.r(U)p.r(U)p.d(G)p.d(G)}$$$RNA1{StrandType:ss}|RNA2{StrandType:as}$” was tested, and the normalised inhibition (eCFP-eYFP dual reporter) was 36.7%.
With “RNA1{r(C)p.r(C)p.r(C)p.r(A)p.r(A)p.r(C)p.r(A)p.r(C)p.r(C)p.r(U)p.r(U)p.r(C)p.r(U)p.r(C)p.r(G)p.r(C)p.r(C)p.r(C)p.r(G)p.d(T)p.d(T)}|RNA2{r(C)p.r(G)p.r(G)p.r(G)p.r(C)p.r(G)p.r(A)p.r(G)p.r(A)p.r(A)p.r(G)p.r(G)p.r(U)p.r(G)p.r(U)p.r(U)p.r(G)p.r(G)p.r(G)p.d(C)p.d(T)}$$$RNA1{StrandType:ss}|RNA2{StrandType:as}$” the normalised inhibition (eCFP-eYFP dual reporter) was 45.9%.
In the case of “RNA1{r(A)p.r(C)p.r(A)p.r(G)p.r(A)p.r(C)p.r(A)p.r(U)p.r(C)p.r(A)p.r(U)p.r(C)p.r(C)p.r(G)p.r(G)p.r(A)p.r(A)p.r(G)p.r(C)p.d(T)p.d(T)}|RNA2{r(G)p.r(C)p.r(U)p.r(U)p.r(C)p.r(C)p.r(G)p.r(G)p.r(A)p.r(U)p.r(G)p.r(A)p.r(U)p.r(G)p.r(U)p.r(C)p.r(U)p.r(G)p.r(U)p.d(G)p.d(T)}$$$RNA1{StrandType:ss}|RNA2{StrandType:as}$”, the normalised inhibition (eCFP-eYFP dual reporter) is reported as 34.9%.
Substance “RNA1{r(A)p.r(G)p.r(G)p.r(A)p.r(A)p.r(G)p.r(A)p.r(G)p.r(C)p.r(C)p.r(G)p.r(G)p.r(U)p.r(C)p.r(G)p.r(A)p.r(G)p.r(G)p.r(G)p.d(T)p.d(T)}|RNA2{r(C)p.r(C)p.r(C)p.r(U)p.r(C)p.r(G)p.r(A)p.r(C)p.r(C)p.r(G)p.r(G)p.r(C)p.r(U)p.r(C)p.r(U)p.r(U)p.r(C)p.r(C)p.r(U)p.d(G)p.d(C)}$$$RNA1{StrandType:ss}|RNA2{StrandType:as}$” has a normalised inhibition (eCFP-eYFP dual reporter) of 44.3%.
Substance “RNA1{r(G)p.r(A)p.r(C)p.r(U)p.r(A)p.r(C)p.r(C)p.r(C)p.r(A)p.r(U)p.r(A)p.r(C)p.r(U)p.r(C)p.r(U)p.r(C)p.r(C)p.r(A)p.r(C)p.d(T)p.d(T)}|RNA2{r(G)p.r(U)p.r(G)p.r(G)p.r(A)p.r(G)p.r(A)p.r(G)p.r(U)p.r(A)p.r(U)p.r(G)p.r(G)p.r(G)p.r(U)p.r(A)p.r(G)p.r(U)p.r(C)p.d(G)p.d(A)}$$$RNA1{StrandType:ss}|RNA2{StrandType:as}$” has a normalised inhibition (eCFP-eYFP dual reporter) of 65.9%.
Work on “RNA1{r(G)p.r(C)p.r(G)p.r(C)p.r(C)p.r(U)p.r(C)p.r(A)p.r(A)p.r(G)p.r(U)p.r(U)p.r(C)p.r(C)p.r(C)p.r(C)p.r(A)p.r(U)p.r(C)p.d(T)p.d(T)}|RNA2{r(G)p.r(A)p.r(U)p.r(G)p.r(G)p.r(G)p.r(G)p.r(A)p.r(A)p.r(C)p.r(U)p.r(U)p.r(G)p.r(A)p.r(G)p.r(G)p.r(C)p.r(G)p.r(C)p.d(G)p.d(C)}$$$RNA1{StrandType:ss}|RNA2{StrandType:as}$” yielded a normalised inhibition (eCFP-eYFP dual reporter) of 58%.

Each substance was assayed against UBE2I (assay: reporter assay of Huesken 2005). Details: siRNA.
For “sense rArArUrGrUrGrUrArCrCrCrUrUrCrGrGrGrGrAdTdT / antisense rUrCrCrCrCrGrArArGrGrGrUrArCrArCrArUrUdCdG”, the normalised inhibition (eCFP-eYFP dual reporter) was 59.6%.
“sense rUrUrCrArArArGrArUrGrArUrUrArUrCrCrArUdTdT / antisense rArUrGrGrArUrArArUrCrArUrCrUrUrUrGrArAdAdA” was tested, and the normalised inhibition (eCFP-eYFP dual reporter) was 65.2%.
With “sense rGrArGrGrCrUrUrGrUrUrUrArArArCrUrArCrGdTdT / antisense rCrGrUrArGrUrUrUrArArArCrArArGrCrCrUrCdCdT” the normalised inhibition (eCFP-eYFP dual reporter) was 73.2%.
Work on “sense rCrArGrArUrCrCrUrArUrUrArGrGrArArUrArCdTdT / antisense rGrUrArUrUrCrCrUrArArUrArGrGrArUrCrUrGdTdT” yielded a normalised inhibition (eCFP-eYFP dual reporter) of 74.4%.
For “sense rGrCrArCrGrArUrGrArArCrCrUrCrArUrGrArAdTdT / antisense rUrUrCrArUrGrArGrGrUrUrCrArUrCrGrUrGrCdCdA”, the normalised inhibition (eCFP-eYFP dual reporter) was 84.4%.
“sense rArCrCrArUrUrArUrUrUrCrArCrCrCrGrArArUdTdT / antisense rArUrUrCrGrGrGrUrGrArArArUrArArUrGrGrUdGdG” gave a normalised inhibition (eCFP-eYFP dual reporter) of 88.3%.
Work on “sense rUrGrUrUrUrArArArCrUrArCrGrGrArUrGrCrUdTdT / antisense rArGrCrArUrCrCrGrUrArGrUrUrUrArArArCrAdAdG” yielded a normalised inhibition (eCFP-eYFP dual reporter) of 68.1%.

From the OligoGym collection
Also: test concentration or dose not given here.
